In patent US7285642B2, “Composition and method for modulating dendritic cell-T cell interaction” (Katholieke Universiteit Nijmegen, priority 2000, dated 2007):

Legend:
adhesion of DC to ICAM-3 = assay: Fluorescent beads adhesion assay: adhesion of DC to ICAM-3Fc beads; format: cell-based, human; details: 5 mM
Description: Exploiting a novel flowcytrometric adhesion assay involving ICAM-3-Fc chimera coated fluorescent beads (Geijtenbeek et al.), the capacity of DC, resting peripheral blood lymphocytes (PBL) and monocytes to bind to this integrin ligand was tested. […] Freshly isolated PBL, monocytes and DC were incubated for 30 min. at 37° C. with either ICAM-1Fc or ICAM-3Fc fluorescent beads. After washing, the percentage of cells that bound beads was determined by flowcytometry. • 1B: Adhesion of leukocytes to ICAM-3 after activation of β2-integrins. Binding of fluorescent ICAM-3Fc beads was measured after 30 min. at 37° C. in the presence of either PMA 980 nM) or the activating anti-β2-integrin antibody KIM185 (10 μg/ml). Inhibition of the LFA-1 specific adhesion after PMA activation was determined in the presence of the blocking anti-LFA-1 antibody NKI-L15 (20 μg/ml). • 1C: Adhesion of DC to ICAM-3 in the presence of blocking antibodies (20 μg/ml) against β2-integrins (NKI-L19), β1-integrin (AIIB2), ICAM-3 (CBR-IC3/1, CBR-IC3/2) or in the presence of EDTA (5 mM) or EGTA (5 mM). The adhesion was determined as described in FIG. 1A.
DC were cultured from monocytes in the presence of GM-CSF and IL-4. […] Adhesion was determined as described in FIG. 1A. […]

DC-SIGN [1] = biological target: T1, DC-SIGN (Homo sapiens, UniProt Q9NNX6); assay: Adhesion of COS7-DC-SIGN cells to ICAM-3 beads; format: cell-based; details: 5 mM
T1 construct: expressed in transfected cells; host or cells: COS7 cells, transient transfection with pRc/CMV-DC-SIGN (DEAE dextran)
T1 sequence (Q9NNX6 1-404): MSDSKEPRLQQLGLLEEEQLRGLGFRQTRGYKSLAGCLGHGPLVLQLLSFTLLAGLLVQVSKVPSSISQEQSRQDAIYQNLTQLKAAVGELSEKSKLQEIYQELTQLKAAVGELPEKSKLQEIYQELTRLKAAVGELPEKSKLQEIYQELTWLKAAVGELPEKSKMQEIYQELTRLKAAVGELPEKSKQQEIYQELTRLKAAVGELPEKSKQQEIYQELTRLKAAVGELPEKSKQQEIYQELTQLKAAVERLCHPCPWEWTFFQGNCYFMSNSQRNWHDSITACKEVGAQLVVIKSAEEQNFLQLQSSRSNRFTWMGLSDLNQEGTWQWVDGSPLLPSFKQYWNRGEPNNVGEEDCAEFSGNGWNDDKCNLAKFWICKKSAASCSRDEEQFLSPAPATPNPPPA
Description: RT-PCR analysis with primers based on the gp120-binding C-type lectin sequence, on RNA isolated from DC yielded a PCR product of the expected length of 1237 nt. The DC-specific PCR product was cloned and sequencing confirmed 100% identity with the human gp120-binding lectin (FIG. 3B). Flowcytometric analysis of COS7 cells, transfected with the cDNA encoding the placenta gp120-binding C-type lectin, unequivocally proves that the gp120 binding C-type lectin is indeed identical to DC-SIGN (FIG. 4A). […] COS7 cells were transfected and the adhesion was determined as described in FIG. 1A, respectively. Adhesion of COS7-DC-SIGN cells to ICAM-3 was measured in the presence of EGTA (5 mM) and blocking antibodies against DC-SIGN (AZN-D1), ICAM-3 (CBR-IC3/1, CBR-IC3/2) and β2 integrinds (AZN-L19). A representative experiment out of 3 is shown (SD<5%). About 30% of the transfected COS7 cells are stained with anti-DC-SIGN-antibody and therefore express DC-SIGN. […]
Carboxylate-modified TransFluorSpheres (488/645 nm, 1.0 μm; Molecular Probes, Eugene, Oreg.) were coated with ICAM-1 Fc and ICAM-3 Fc as described previously (Geijtenbeek et al., 1999 submitted). […] Adhesion was determined by measuring the percentage of cells, which have bound fluorescent beads, by flowcytometry using the FACScan (Becton and Dickinson & Co., Oxnard, Calif.).

DC-SIGN [2] = biological target: T1, DC-SIGN; assay: Binding of DC-SIGN to ICAM-2 and ICAM-3 expressing K562 cells (FIG. 8); format: cell-based

Row | Molecule | Inhibition of adhesion of DC to ICAM-3Fc fluorescent beads (adhesion of DC to ICAM-3) | Inhibition of adhesion of COS7-DC-SIGN cells to ICAM-3 (DC-SIGN [1]) | Inhibition of DC-SIGN binding to K562 cells expressing ICAM-2 or ICAM-3 (DC-SIGN [2])
1 | O=C(O)CN(CCN(CC(=O)O)CC(=O)O)CC(=O)O [EDTA] | completely blocked |  | 
2 | O=C(O)CN(CCOCCOCCN(CC(=O)O)CC(=O)O)CC(=O)O [EGTA] | completely blocked | blocks adhesion completely | 
3 | mannan |  |  | can be inhibited
